≈ marks a conversion by molar mass, not a printed value. Like-named read-outs stand apart in the source and are kept apart here.
Tests used:
[1] = test system: Corynebacterium pyogenes CY1; test: MIC against veterinary bacteria in vitro; settings: CY1, 18 h
Procedure: (§1) The activity of the compounds of the Examples against various veterinarily important bacteria, was assayed in vitro using two-fold serial dilutions in Diagnostic Sensitivity Test Agar inoculated with 10^4 organisms.

M. suipneumoniae LABER = test: MIC against mycoplasma in vitro; format: cell-based; settings: Mesomycoplasma hyopneumoniae, 144 h; M. suipneumoniae LABER; 6 days, 37° C.; read-out: MIC
[2] = test system: M. suipneumoniae J2206/183^b; test: MIC against mycoplasma in vitro; format: cell-based; settings: Mesomycoplasma hyopneumoniae, 144 h
Bord. bronchiseptica B08 = test: MIC against veterinary bacteria in vitro; settings: Bordetella bronchiseptica, B08, 18 h
Procedure: as §1

Strep. uberis SPU1 = test: MIC against veterinary bacteria in vitro; settings: Streptococcus uberis, SPU1, 18 h
Procedure: as §1

Strep. dysgalactiae SPD1 = test: MIC against veterinary bacteria in vitro; settings: Streptococcus dysgalactiae, SPD1, 18 h
Procedure: as §1

M. bovis NCTC 10131 = test: microbe, parasite or virus in culture; format: cell-based; settings: NCTC10131, 144 h
Strep. faecalis I = test: MIC against human bacteria in vitro; format: cell-based; settings: Enterococcus faecalis; Strep. faecalis I; 5% chocolated horse blood agar, 18 hours; read-out: MIC
[3] = test system: Pasteurella multocida 1633; test: MIC against human bacteria in vitro; format: cell-based; settings: Pasteurella multocida 1633; 5% chocolated horse blood agar, 18 hours; read-out: MIC
M. hyorhinis ATCC 23234 = test: MIC against mycoplasma in vitro; format: cell-based; settings: Mesomycoplasma hyorhinis, ATCC23234, 144 h
[4] = test system: M. hyosynoviae ATCC 25591; test: MIC against mycoplasma in vitro; format: cell-based; settings: 144 h
K. aerogenes A = test: MIC against human bacteria in vitro; format: cell-based; settings: Klebsiella aerogenes; K. aerogenes A; 5% chocolated horse blood agar, 18 hours; read-out: MIC
M. suipneumoniae HK(2) = test: MIC against mycoplasma in vitro; format: cell-based; settings: Mesomycoplasma hyopneumoniae, 144 h
Bacillus subtilis 6633 = test: MIC against human bacteria in vitro; format: cell-based; settings: Bacillus subtilis 6633; 5% chocolated horse blood agar, 18 hours; read-out: MIC
B. subtilis ATCC 6633 = test: MIC against veterinary bacteria in vitro; settings: Bacillus subtilis, ATCC6633, 18 h
Procedure: as §1

S. typhimurium S18 = test: MIC against veterinary bacteria in vitro; settings: Salmonella enterica, TYPHIMURIUM, 18 h
Procedure: as §1

E. coli ESS = test: MIC against human bacteria in vitro; format: cell-based; settings: Escherichia coli; E. coli ESS; 5% chocolated horse blood agar, 18 hours; read-out: MIC
Strep. spp. 64/848-C = test: MIC against human bacteria in vitro; format: cell-based; settings: Strep. spp. 64/848-C; 5% chocolated horse blood agar, 18 hours; read-out: MIC
[5] = test system: Staph. aureus B4 (pen. resistant); test: MIC against veterinary bacteria in vitro; settings: Staphylococcus aureus, 18 h
Procedure: as §1

Bord. bronchiseptica B09 = test: MIC against veterinary bacteria in vitro; settings: Bordetella bronchiseptica, B09, 18 h
Procedure: as §1

Staph. aureus Oxford = test: MIC against veterinary bacteria in vitro; settings: Staphylococcus aureus, 18 h
Procedure: as §1

M. pneumoniae ATCC 15492 = test: MIC against mycoplasma in vitro; format: cell-based; settings: Mycoplasmoides pneumoniae, ATCC15492, 144 h
[6] = test system: Erysipelothrix rhusiopathiae NCTC 8163; test: MIC against veterinary bacteria in vitro; settings: Erysipelothrix rhusiopathiae, NCTC8163, 18 h
Procedure: as §1

[7] = M. pneumoniae ATCC 15492, 6 days, 37° C., read-out: MIC

Structure (SMILES)	MIC [1] [mg/L]	MIC [2] [mg/L]	MIC (Bord. bronchiseptica B08) [mg/L]	MIC (Strep. uberis SPU1) [mg/L]	MIC (Strep. dysgalactiae SPD1) [mg/L]	MIC (M. bovis NCTC 10131) [mg/L]	MIC (Strep. faecalis I) [mg/L]	MIC [3] [mg/L]	MIC [4] [mg/L]	MIC (K. aerogenes A) [mg/L]	MIC (M. suipneumoniae HK(2)) [mg/L]	MIC (Bacillus subtilis 6633) [mg/L]	MIC (B. subtilis ATCC 6633) [mg/L]	MIC (S. typhimurium S18) [mg/L]	MIC (E. coli ESS) [mg/L]	MIC (Strep. spp. 64/848-C) [mg/L]	MIC [5] [mg/L]	MIC (Bord. bronchiseptica B09) [mg/L]	MIC (Staph. aureus Oxford) [mg/L]	MIC [6] [mg/L]	other results
C/C(=C\c1ncc(-c2cccc(S(C)(=O)=O)c2)o1)C[C@@H]1OC[C@H](C[C@@H]2O[C@H]2[C@@H](C)[C@H](C)O)[C@@H](O)[C@H]1O [Example 23, 5-m-Methylsulphonylphenyl-2-(1-normon-2-yl) oxazole A]	> 80	1 (≈ 1.92 µM)	> 80	0.625 (≈ 1.2 µM)	1.25 (≈ 2.4 µM)	0.025 (≈ 0.0479 µM)	> 128	2 (≈ 3.83 µM)	1 (≈ 1.92 µM)	> 64	1 (≈ 1.92 µM)	2 (≈ 3.83 µM)	1.25 (≈ 2.4 µM)	> 80	4 (≈ 7.67 µM)	2 (≈ 3.83 µM)	5 (≈ 9.59 µM)	40 (≈ 76.7 µM)	10 (≈ 19.2 µM)	> 80	MIC (M. suipneumoniae LABER): 0.5 mg/L (≈ 0.959 µM); MIC (M. hyorhinis ATCC 23234; M. hyorhinis ATCC 23234, 6 days, 37° C., read-out: MIC): 0.5 mg/L (≈ 0.959 µM); MIC (M. pneumoniae ATCC 15492): 1 mg/L (≈ 1.92 µM)
C/C(=C\c1ncc(-c2ccc(S(=O)(=O)N(C)C)cc2)o1)C[C@@H]1OC[C@H](C[C@@H]2O[C@H]2[C@@H](C)[C@H](C)O)[C@@H](O)[C@H]1O [Example 24, 5-p-Dimethylaminosulphonylphenyl-2-(1-normon-2-yl)oxazole A]	80 (≈ 145 µM)	0.25 (≈ 0.454 µM)	80 (≈ 145 µM)	0.312 (≈ 0.567 µM)	0.625 (≈ 1.13 µM)	0.025 (≈ 0.0454 µM)	> 128	16 (≈ 29.1 µM)	0.25 (≈ 0.454 µM)	> 64	0.25 (≈ 0.454 µM)	4 (≈ 7.26 µM)	0.312 (≈ 0.567 µM)	> 80	4 (≈ 7.26 µM)	4 (≈ 7.26 µM)	1.25 (≈ 2.27 µM)	40 (≈ 72.6 µM)	1.25 (≈ 2.27 µM)	40 (≈ 72.6 µM)	MIC (M. hyorhinis ATCC 23234): 0.1 mg/L (≈ 0.182 µM); MIC (M. pneumoniae ATCC 15492; [7]): 0.5 mg/L (≈ 0.908 µM)
CSc1cccc(-c2cnc(/C=C(\C)C[C@@H]3OC[C@H](C[C@@H]4O[C@H]4[C@@H](C)[C@H](C)O)[C@@H](O)[C@H]3O)o2)c1 [Example 22, 5-m-Methylthiophenyl-2-(1-normon-2-yl)oxazole A]	> 80	1 (≈ 2.04 µM)	> 80	0.156 (≈ 0.319 µM)	1.25 (≈ 2.55 µM)	0.05 (≈ 0.102 µM)	> 128	32 (≈ 65.4 µM)	1 (≈ 2.04 µM)	> 128	1 (≈ 2.04 µM)	4 (≈ 8.17 µM)	0.625 (≈ 1.28 µM)	> 80	64 (≈ 131 µM)	16 (≈ 32.7 µM)	1.25 (≈ 2.55 µM)	40 (≈ 81.7 µM)	2.5 (≈ 5.11 µM)	80 (≈ 163 µM)	MIC (M. suipneumoniae LABER): 0.5 mg/L (≈ 1.02 µM); MIC (M. hyorhinis ATCC 23234): 1 mg/L (≈ 2.04 µM); MIC (M. pneumoniae ATCC 15492; [7]): 5 mg/L (≈ 10.2 µM)
